Test results published in ChEMBL document CHEMBL1275472, “Cell-penetrating peptide TP10 shows broad-spectrum activity against both Plasmodium falciparum and Trypanosoma brucei brucei” (Antimicrob Agents Chemother, 2008).
Activity calls are given as the source filed them. The calls are words filed in the database; no cut-off is given here.

How the values were obtained:
Plasmodium falciparum [1] = assay: Antiplasmodial activity against Plasmodium falciparum 3D7 clone infected in Anopheles gambiae Keele vector assessed as prevalence of […] infection at 30 uM; format: functional
Plasmodium falciparum [2] = assay: Antiplasmodial activity against asynchronous blood-stage Plasmodium falciparum HB3 infected in human RBC at 30 uM after 24 hrs by microscopy; format: functional, organism-based
Plasmodium falciparum [3] = assay: Antiplasmodial activity against asynchronous blood-stage Plasmodium falciparum HB3 infected in human RBC at 30 uM after 18 hrs by Malstat assay; format: functional, organism-based
Plasmodium falciparum [4] = assay: Antiplasmodial activity against asynchronous blood-stage Plasmodium falciparum HB3 infected in human RBC at 30 uM after 24 hrs by Malstat assay; format: functional, organism-based
Plasmodium falciparum [5] = assay: Antiplasmodial activity against asynchronous blood-stage Plasmodium falciparum HB3 infected in human RBC at 30 uM after 21 hrs by Malstat assay; format: functional, organism-based
[6] = test system: Trypanosoma brucei brucei; assay: Trypanocidal activity against bloodstream form of Trypanosoma brucei brucei 427 assessed as lysis half-time at 5.4 uM by alamar blue assay; format: functional, organism-based
Homo sapiens = species: Homo sapiens; assay: Toxicity in human RBC assessed as induction of hemolysis at 1 to 30 uM
Plasmodium falciparum [7] = assay: Antiplasmodial activity against asynchronous blood-stage Plasmodium falciparum HB3 infected in human RBC at 30 uM after 15 hrs by Malstat assay; format: functional, organism-based
[8] = test system: Trypanosoma brucei brucei; assay: […] activity against bloodstream form of Trypanosoma brucei 427; format: functional, organism-based

Row | Compound | Activity (Plasmodium falciparum [1]) [%] | Activity (Plasmodium falciparum [2]) | Activity (Plasmodium falciparum [3]) | Activity (Plasmodium falciparum [4]) | Activity (Plasmodium falciparum [5]) | Activity [6] | Activity (Homo sapiens) | Activity (Plasmodium falciparum [7]) | IC50 [8] [µM]
1 | CC[C@H](C)[C@H](NC(=O)[C@H](CCCCN)NC(=O)[C@H](CCCCN)NC(=O)[C@H](C)NC(=O)[C@H](CC(C)C)NC(=O)[C@H](C)NC(=O)[C@H](C)NC(=O)[C@H](CC(C)C)NC(=O)[C@H](C)NC(=O)[C@H](CCCCN)NC(=O)[C@H](CC(C)C)NC(=O)[C@H](CC(N)=O)NC(=O)[C@@H](NC(=O)[C@H](CCCCN)NC(=O)CNC(=O)[C@H](CC(C)C)NC(=O)[C@H](CC(C)C)NC(=O)[C@H](Cc1ccc(O)cc1)NC(=O)CNC(=O)[C@H](C)N)[C@@H](C)CC)C(=O)N[C@@H](CC(C)C)C(=O)O | 30 | Active | Active | Active | Active | Active | Non-toxic | Active | 2.7
2 | H-LLIILRRRIRKQAHAHSK-OH | 44 | inactive |  | inactive |  |  |  |  | 
